Measured values published in ChEMBL document CHEMBL4422610, “HDAC as onco target: Reviewing the synthetic approaches with SAR study of their inhibitors” (Eur J Med Chem, 2018).
Values belong to the compound of their own block, whether it stands above or below them.

Tests used:
[1] = system: A549; test: cells; details: Homo sapiens
[2] = system: MKN-45; test: cells; details: Homo sapiens
[3] = system: MCF7; test: cells; details: Homo sapiens
[4] = biological target: T1, Histone deacetylase 8 (Homo sapiens, UniProt Q9BY41); test: Inhibition of human HDAC8 using ZMTFAL as substrate measured after 90 mins by fluorescence assay
T1 sequence (Q9BY41 whole entry): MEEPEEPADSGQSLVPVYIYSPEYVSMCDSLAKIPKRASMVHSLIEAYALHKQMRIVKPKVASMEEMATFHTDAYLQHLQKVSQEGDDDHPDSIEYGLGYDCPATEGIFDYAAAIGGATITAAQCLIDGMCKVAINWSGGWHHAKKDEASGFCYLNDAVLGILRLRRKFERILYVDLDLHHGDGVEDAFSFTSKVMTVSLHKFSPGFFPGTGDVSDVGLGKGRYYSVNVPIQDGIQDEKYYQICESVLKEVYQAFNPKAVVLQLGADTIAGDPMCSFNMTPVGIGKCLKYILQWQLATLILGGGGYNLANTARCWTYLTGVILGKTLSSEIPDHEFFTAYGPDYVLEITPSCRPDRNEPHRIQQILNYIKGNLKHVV

[5] = biological target: Protein deacetylase HDAC6 (Homo sapiens) (UniProt Q9UBN7); test: Inhibition of human HDAC6 at 100 uM relative to control
[6] = system: MCF7; test: cells; assay type: functional, cell-based; details: Homo sapiens
[7] = system: PC-3; test: cells; assay type: functional, cell-based; details: Homo sapiens
[8] = system: Vero; test: cells; assay type: ADME, cell-based; details: Chlorocebus sabaeus
[9] = system: RWPE-1; test: cells; assay type: ADME, cell-based; details: Homo sapiens
[10] = system: MDA-MB-231; test: cells; details: Homo sapiens
[11] = biological target: T2, Polyamine deacetylase HDAC10 (Homo sapiens, UniProt Q969S8); test: Inhibition of human HDAC10 using fluorogenic HDAC substrate
T2 sequence (Q969S8 whole entry): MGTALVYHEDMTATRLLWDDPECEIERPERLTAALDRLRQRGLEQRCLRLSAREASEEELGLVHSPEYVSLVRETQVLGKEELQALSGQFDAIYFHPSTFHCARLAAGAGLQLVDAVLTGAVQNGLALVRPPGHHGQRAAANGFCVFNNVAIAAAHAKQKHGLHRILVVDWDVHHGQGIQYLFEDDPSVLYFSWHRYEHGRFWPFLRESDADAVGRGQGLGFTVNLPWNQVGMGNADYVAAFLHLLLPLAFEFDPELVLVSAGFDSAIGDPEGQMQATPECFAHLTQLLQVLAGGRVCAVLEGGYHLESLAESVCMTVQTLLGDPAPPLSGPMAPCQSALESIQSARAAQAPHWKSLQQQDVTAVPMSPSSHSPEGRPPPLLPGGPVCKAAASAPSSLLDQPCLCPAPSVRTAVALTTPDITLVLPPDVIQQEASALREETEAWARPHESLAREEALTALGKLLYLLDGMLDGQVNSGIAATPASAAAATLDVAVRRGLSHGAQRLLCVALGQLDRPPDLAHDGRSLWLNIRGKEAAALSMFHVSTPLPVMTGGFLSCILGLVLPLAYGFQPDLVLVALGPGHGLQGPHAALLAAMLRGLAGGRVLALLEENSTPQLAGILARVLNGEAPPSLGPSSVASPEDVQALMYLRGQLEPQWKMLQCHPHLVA

[12] = biological target: T3, Histone deacetylase 7 (Homo sapiens, UniProt Q8WUI4); test: Inhibition of human HDAC7 using fluorogenic HDAC substrate
T3 sequence (Q8WUI4 whole entry): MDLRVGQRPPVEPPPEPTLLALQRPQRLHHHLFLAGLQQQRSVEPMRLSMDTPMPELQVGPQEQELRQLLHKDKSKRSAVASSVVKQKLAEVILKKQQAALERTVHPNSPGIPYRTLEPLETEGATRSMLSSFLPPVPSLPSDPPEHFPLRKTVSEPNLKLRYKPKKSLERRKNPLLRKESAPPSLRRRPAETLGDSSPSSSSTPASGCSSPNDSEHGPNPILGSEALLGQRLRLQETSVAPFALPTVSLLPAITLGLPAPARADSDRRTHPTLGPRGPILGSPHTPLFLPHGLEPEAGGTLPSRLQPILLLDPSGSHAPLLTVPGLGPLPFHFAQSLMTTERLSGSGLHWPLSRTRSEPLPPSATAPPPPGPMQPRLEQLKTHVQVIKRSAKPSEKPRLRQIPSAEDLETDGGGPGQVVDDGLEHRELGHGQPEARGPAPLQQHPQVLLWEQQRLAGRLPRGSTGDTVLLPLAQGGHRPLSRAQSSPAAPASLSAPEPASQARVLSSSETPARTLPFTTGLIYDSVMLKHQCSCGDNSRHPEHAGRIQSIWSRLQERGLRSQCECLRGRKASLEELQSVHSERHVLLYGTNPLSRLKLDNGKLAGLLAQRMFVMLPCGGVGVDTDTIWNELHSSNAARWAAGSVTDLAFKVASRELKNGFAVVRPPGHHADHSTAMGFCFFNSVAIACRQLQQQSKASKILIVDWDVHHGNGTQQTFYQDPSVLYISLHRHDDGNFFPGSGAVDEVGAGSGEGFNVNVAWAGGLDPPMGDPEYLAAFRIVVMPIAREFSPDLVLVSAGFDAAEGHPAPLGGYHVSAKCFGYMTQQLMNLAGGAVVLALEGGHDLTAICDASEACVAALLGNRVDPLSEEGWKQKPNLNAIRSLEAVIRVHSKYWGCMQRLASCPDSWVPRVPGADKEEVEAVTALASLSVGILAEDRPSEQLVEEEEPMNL

[13] = biological target: T4, Protein deacetylase HDAC6 (Homo sapiens, UniProt Q9UBN7); test: Inhibition of human HDAC6 using fluorogenic HDAC substrate
T4 sequence (Q9UBN7 whole entry): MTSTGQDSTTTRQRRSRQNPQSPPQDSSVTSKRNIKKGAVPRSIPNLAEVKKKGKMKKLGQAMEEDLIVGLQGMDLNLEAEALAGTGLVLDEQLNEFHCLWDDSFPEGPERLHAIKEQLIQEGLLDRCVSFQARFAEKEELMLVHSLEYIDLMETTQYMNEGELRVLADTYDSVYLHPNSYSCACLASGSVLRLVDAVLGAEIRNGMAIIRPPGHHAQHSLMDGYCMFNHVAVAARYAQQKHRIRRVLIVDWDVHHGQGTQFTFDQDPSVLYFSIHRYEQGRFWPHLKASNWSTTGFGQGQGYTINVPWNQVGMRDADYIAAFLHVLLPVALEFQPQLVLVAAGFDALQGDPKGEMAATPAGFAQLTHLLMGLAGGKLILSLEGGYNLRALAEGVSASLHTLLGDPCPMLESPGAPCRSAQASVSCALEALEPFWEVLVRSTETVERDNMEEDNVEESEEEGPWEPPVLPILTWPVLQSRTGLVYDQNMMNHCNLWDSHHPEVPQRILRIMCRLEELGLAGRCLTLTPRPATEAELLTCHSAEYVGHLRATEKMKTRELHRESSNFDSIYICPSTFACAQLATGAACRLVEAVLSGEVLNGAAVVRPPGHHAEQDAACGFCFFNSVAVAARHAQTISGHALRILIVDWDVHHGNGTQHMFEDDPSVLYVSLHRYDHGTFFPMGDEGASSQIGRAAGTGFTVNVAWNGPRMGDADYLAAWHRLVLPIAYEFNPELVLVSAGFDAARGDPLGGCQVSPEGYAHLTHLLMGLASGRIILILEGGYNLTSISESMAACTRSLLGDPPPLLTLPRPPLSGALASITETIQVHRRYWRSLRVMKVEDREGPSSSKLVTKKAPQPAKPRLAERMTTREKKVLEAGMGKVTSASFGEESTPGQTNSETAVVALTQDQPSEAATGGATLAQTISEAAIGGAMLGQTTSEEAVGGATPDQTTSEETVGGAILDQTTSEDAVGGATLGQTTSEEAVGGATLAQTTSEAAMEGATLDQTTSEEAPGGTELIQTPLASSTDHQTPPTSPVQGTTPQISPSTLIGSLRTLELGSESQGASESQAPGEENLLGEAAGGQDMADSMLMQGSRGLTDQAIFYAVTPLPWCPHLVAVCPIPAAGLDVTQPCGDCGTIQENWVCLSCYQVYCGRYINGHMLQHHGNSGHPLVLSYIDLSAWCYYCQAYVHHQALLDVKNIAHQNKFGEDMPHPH

[14] = biological target: T5, Histone deacetylase 1 (Homo sapiens, UniProt Q13547); test: Inhibition of human HDAC1 using fluorogenic HDAC substrate
[15] = biological target: Histone deacetylase 4 (Homo sapiens, UniProt P56524); test: Inhibition of human HDAC4 using fluorogenic HDAC substrate
[16] = biological target: T6, Histone deacetylase 11 (Homo sapiens, UniProt Q96DB2); test: Inhibition of human HDAC11 using fluorogenic HDAC substrate
T6 sequence (Q96DB2 whole entry): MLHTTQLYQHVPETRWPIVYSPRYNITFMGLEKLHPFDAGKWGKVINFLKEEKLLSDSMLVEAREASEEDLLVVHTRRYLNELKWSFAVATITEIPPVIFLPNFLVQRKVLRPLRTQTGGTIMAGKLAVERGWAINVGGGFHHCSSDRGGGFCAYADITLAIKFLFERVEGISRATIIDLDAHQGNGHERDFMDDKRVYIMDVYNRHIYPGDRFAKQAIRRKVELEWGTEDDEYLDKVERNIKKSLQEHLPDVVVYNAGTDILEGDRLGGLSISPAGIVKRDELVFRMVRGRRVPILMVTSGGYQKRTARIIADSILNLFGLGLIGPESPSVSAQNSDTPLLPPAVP

[17] = biological target: T1, Histone deacetylase 8; test: Inhibition of human HDAC8 using fluorogenic HDAC substrate
[18] = biological target: Histone deacetylase 9 (Homo sapiens, UniProt Q9UKV0); test: Inhibition of human HDAC9 using fluorogenic HDAC substrate
[19] = biological target: Histone deacetylase 5 (Homo sapiens, UniProt Q9UQL6); test: Inhibition of human HDAC5 using fluorogenic HDAC substrate
[20] = biological target: T5, Histone deacetylase 1; test: Inhibition of recombinant human FLAG/His-tagged HDAC1 expressed in baculovirus expression system using Boc-l-Lys(Ac)-AMC as substrate preincubated up to 3 hrs and measured after 35 mins by fluorescence assay
[21] = biological target: Histone deacetylase 3/Nuclear receptor corepressor 2 (HDAC3/NCoR2) (Homo sapiens) (UniProt O15379+Q9Y618); test: Inhibition of human recombinant full length C-terminal His-tagged HDAC3 (1 to 428 residues)/N-terminal GST-tagged NCOR2 (395 to 489 residues) expressed in insect cells using Boc-l-Lys(Ac)-AMC as substrate preincubated up to 3 hrs and measured after 35 mins by fluorescence assay
[22] = biological target: T4, Protein deacetylase HDAC6; test: Inhibition of HDAC6 (unknown origin) using (FAM)-labeled acetylated peptide as substrate measured after 17 hrs by fluorescence assay
[23] = biological target: T1, Histone deacetylase 8; test: Inhibition of HDAC8 (unknown origin) using (FAM)-labeled acetylated peptide as substrate measured after 17 hrs by fluorescence assay
[24] = biological target: T5, Histone deacetylase 1; test: Inhibition of HDAC1 (unknown origin) using (FAM)-labeled acetylated peptide as substrate measured after 17 hrs by fluorescence assay
[25] = biological target: T2, Polyamine deacetylase HDAC10; test: Inhibition of HDAC10 (unknown origin) using (FAM)-labeled acetylated peptide as substrate measured after 17 hrs by fluorescence assay
[26] = biological target: Histone deacetylase 2 (Homo sapiens, UniProt Q92769)
[27] = biological target: T4, Protein deacetylase HDAC6; test: Inhibition of recombinant human His-tagged HDAC6 expressed in baculovirus infected insect cells using Fluor-de-lys as substrate measured after 60 mins by fluorescence assay
[28] = biological target: Histone deacetylase; assay type: cell-based, Homo sapiens; details: hela
[29] = biological target: Histone deacetylase; assay type: cell-based, Homo sapiens; details: hela; remark: listed apart in the source
[30] = biological target: T5, Histone deacetylase 1; test: Inhibition of recombinant human GST-fused HDAC1 expressed in HEK293 cells Fluor-de-lys as substrate measured after 60 mins by fluorescence assay

T5 sequence (Q13547 whole entry): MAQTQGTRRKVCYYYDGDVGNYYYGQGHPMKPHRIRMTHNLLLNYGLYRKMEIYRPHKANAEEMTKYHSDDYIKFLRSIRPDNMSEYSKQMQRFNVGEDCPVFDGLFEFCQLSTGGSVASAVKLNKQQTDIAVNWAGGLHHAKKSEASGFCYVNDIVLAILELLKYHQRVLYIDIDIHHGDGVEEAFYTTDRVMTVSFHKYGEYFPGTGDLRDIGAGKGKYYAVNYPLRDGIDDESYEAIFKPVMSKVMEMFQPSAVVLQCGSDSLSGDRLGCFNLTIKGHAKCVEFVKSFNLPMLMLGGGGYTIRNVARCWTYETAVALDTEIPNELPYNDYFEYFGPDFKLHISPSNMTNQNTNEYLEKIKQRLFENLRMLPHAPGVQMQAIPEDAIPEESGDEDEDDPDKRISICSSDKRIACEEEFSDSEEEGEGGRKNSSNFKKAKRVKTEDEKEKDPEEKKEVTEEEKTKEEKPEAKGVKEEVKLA
Histone deacetylase 2, sequence (Q92769 whole entry): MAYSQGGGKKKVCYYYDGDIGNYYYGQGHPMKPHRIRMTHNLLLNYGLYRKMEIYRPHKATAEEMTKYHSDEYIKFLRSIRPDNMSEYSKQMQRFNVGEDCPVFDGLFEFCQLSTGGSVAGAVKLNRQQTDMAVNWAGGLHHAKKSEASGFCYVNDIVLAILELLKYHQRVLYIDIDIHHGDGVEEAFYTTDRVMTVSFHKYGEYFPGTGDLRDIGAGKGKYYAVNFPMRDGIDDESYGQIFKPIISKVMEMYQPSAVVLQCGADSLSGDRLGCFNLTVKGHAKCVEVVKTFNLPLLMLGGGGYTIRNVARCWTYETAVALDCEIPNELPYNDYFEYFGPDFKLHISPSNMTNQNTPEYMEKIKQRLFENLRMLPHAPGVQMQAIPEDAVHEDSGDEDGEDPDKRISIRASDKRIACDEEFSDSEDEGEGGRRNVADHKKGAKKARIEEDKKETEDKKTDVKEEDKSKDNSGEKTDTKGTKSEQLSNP
Histone deacetylase 5, sequence (Q9UQL6 whole entry): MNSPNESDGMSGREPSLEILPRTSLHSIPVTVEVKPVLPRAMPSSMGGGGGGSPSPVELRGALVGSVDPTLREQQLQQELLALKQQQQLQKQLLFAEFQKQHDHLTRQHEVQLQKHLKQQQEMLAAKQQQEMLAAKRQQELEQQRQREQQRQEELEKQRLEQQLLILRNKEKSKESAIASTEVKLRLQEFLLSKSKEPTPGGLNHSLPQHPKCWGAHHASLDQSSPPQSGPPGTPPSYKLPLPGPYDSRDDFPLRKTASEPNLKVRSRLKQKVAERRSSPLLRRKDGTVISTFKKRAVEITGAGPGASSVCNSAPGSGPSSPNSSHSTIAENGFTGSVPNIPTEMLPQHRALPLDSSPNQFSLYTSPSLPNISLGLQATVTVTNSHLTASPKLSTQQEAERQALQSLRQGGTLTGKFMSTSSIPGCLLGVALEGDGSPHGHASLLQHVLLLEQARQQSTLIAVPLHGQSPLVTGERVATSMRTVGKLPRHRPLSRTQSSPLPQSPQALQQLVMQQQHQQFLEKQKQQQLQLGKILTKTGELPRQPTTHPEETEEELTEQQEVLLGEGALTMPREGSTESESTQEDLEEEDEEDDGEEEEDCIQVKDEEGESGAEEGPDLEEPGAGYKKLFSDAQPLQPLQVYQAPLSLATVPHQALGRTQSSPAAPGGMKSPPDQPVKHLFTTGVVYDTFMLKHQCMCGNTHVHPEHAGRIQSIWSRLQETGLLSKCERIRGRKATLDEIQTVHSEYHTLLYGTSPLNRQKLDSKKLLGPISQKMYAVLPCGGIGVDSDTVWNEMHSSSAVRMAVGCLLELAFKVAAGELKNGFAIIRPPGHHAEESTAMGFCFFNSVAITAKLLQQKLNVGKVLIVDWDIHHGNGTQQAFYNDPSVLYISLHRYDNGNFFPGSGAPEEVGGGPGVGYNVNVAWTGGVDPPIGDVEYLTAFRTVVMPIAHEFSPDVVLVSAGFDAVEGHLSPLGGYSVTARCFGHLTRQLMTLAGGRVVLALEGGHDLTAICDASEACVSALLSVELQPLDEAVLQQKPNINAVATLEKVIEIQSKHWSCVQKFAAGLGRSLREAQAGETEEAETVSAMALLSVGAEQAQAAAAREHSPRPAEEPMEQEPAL
Histone deacetylase 9, sequence (Q9UKV0 whole entry): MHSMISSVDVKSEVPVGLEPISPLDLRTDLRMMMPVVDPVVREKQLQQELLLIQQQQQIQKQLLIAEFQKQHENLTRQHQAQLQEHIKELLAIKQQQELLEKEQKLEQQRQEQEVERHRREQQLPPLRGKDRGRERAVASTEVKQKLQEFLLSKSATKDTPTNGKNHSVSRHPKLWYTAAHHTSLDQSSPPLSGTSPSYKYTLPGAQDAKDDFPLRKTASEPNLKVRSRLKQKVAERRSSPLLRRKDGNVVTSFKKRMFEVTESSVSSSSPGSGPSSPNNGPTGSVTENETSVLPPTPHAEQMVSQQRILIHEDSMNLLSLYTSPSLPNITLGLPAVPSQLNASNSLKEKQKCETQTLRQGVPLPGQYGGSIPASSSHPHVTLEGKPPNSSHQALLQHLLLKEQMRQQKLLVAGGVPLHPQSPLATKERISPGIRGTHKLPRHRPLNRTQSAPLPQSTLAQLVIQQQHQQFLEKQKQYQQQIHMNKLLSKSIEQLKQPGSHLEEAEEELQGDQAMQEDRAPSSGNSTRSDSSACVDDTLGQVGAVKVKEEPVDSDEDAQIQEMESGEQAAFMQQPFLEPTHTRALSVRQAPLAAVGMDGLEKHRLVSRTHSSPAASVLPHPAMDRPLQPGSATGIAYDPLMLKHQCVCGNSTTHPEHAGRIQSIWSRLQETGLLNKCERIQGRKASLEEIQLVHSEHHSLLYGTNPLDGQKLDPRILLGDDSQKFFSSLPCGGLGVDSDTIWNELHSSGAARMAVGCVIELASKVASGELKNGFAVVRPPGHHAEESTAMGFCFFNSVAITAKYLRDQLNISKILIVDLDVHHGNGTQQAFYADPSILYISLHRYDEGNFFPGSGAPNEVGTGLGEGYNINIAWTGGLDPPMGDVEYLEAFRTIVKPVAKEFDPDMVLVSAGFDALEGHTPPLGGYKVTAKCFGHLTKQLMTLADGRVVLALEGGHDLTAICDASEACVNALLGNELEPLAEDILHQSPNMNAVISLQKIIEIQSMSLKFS
Histone deacetylase 4, sequence (P56524 whole entry): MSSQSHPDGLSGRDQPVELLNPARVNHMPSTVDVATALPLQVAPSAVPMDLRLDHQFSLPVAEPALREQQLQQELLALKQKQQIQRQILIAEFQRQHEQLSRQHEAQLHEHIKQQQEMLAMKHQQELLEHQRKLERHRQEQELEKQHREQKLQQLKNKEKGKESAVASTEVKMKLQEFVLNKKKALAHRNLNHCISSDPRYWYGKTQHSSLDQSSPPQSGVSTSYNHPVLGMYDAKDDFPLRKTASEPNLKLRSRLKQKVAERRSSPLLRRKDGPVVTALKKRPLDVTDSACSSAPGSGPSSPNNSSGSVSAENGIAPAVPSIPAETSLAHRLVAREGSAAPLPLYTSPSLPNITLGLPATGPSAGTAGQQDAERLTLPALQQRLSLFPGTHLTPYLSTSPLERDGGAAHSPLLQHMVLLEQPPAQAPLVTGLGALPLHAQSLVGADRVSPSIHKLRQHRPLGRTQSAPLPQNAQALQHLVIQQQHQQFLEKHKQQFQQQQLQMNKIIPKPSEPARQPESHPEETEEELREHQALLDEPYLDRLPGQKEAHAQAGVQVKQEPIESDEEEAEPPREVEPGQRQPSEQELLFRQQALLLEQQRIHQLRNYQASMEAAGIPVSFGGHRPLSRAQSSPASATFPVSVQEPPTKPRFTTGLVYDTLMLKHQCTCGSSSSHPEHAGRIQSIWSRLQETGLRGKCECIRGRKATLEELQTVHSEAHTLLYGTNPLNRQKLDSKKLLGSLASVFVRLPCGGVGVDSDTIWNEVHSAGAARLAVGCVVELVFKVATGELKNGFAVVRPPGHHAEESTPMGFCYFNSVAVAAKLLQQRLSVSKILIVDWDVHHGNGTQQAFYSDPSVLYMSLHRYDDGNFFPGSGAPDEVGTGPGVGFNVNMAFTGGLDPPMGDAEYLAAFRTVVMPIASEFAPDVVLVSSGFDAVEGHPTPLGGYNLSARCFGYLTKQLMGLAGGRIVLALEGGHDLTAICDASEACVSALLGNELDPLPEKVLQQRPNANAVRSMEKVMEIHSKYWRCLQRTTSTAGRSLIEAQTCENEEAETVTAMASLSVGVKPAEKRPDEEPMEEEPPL

SMILES: CCCCCCC[C@H](OC(=O)[C@@H](CCCCN(O)C=O)NC(=O)c1nc(-c2cc(OC)ccc2O)oc1C)C(C)(C)C(=O)N[C@H]1CCCCN(O)C1=O [AMAMISTATIN A]
- IC50 [1]: 0.56 µM
- IC50 [2]: 0.24 µM
- IC50 [3]: 0.48 µM

SMILES: O=C(NO)c1ccc(NC(=S)N/N=C/c2ccc(F)cc2)cc1
- IC50 [4]: 19.7 µM
- inhibition [5]: 23%

SMILES: CC1(C)C(=O)N(c2ccc(C#N)c(C(F)(F)F)c2)C(=O)N1Cc1ccc(-c2cn(CCCCCCC(=O)NO)nn2)cc1
- IC50 [6]: 4.24 µM
- IC50 [7]: 3.31 µM
- IC50 [8]: 11 µM
- IC50 [9]: 0.48 µM
- IC50 [10]: 1.45 µM

SMILES: O=C(NO)c1ccc(CN2c3ccccc3C[C@@H]3CCCC[C@H]32)cc1
- IC50 [11]: > 30 µM
- IC50 [12]: > 30 µM
- IC50 [13]: 0.036 µM
- IC50 [14]: > 30 µM
- IC50 [15]: > 30 µM
- IC50 [16]: 1.5 µM
- IC50 [17]: 5.3 µM
- IC50 [18]: 25 µM
- IC50 [19]: 27 µM

SMILES: CC1(C)C(=O)N(c2ccc(C#N)c(C(F)(F)F)c2)C(=O)N1CCCCc1cn(CCCCCCC(=O)NO)nn1
- IC50 [6]: 14.6 µM
- IC50 [7]: 15.7 µM
- IC50 [8]: > 20 µM
- IC50 [9]: 12.1 µM
- IC50 [10]: > 20 µM

SMILES: O=C(NO)c1ccc(NC(=S)N/N=C/c2ccccc2)cc1
- IC50 [4]: 27.6 µM
- inhibition [5]: 30%

More lines, now with the values ahead:

- inhibition [20]: 21 to 34%
- inhibition [21]: < 12%
SMILES: O=C(Nc1cc(-c2ccccc2)ccc1O)c1c(-c2ccc(O)cc2)sc2cc(O)ccc12

- IC50 [22]: > 30 µM
- IC50 [23]: > 30 µM
- IC50 [24]: > 30 µM
- IC50 [25]: > 30 µM
- IC50 [26]: > 30 µM
SMILES: Nc1ccccc1NC(=O)CCCCCCC(=O)Nc1ccc(-c2cn(Cc3ccccc3)nn2)cc1

- IC50 [22]: > 30 µM
- IC50 [23]: > 30 µM
- IC50 [24]: 2.49 µM
- IC50 [25]: 2.91 µM
- IC50 [26]: 0.147 µM
SMILES: Nc1cccc(-c2csc(NC(=O)CCCCCCC(=O)Nc3ccccc3N)n2)c1

- IC50 [27]: 0.107 µM
- IC50 [28]: 0.234 µM
- IC50 [29]: 0.132 µM
- IC50 [30]: 0.028 µM
SMILES: CCn1cnc(-c2ccccc2)c1-c1ccc(/C=C/C(=O)NO)cc1
